From ChEMBL document CHEMBL1201862, “PubChem BioAssay data set” (2004)
Several values for one entry are separate records, joined by “and”; a condition that tells them apart may be missing. Equal values may be shown once. Activity calls are given as the source filed them.

Key:
[1] = molecular target: T1, Mannose-6-phosphate isomerase (Homo sapiens, UniProt P34949); experiment: MPI inhibition at elevated mannose 6-phosphate – biochemical, fluorescence intensity, high mannose 6-phosphate, primary screen (AID 1220)
T1 sequence (P34949 whole entry): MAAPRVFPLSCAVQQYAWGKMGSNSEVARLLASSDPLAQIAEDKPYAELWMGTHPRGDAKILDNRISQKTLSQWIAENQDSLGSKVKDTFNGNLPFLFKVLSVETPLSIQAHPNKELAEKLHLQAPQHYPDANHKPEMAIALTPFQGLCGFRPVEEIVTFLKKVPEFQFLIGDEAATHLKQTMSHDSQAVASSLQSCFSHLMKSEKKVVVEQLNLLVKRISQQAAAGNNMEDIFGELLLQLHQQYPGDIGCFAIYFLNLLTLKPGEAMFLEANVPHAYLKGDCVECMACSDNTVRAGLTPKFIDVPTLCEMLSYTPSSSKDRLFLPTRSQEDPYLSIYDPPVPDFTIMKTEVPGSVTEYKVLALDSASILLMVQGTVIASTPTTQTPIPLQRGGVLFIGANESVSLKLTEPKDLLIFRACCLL

BJ [2] = experiment: cells; type: functional, cell-based; conditions: Homo sapiens
[3] = DRD fibroblast viability loss – cell-based, non-viral oncogenic, luminescence, dose response (AID 1934); type: functional; conditions: Homo sapiens
[4] = general cell-killing toxicity readout – plate reader, dry powder samples, cytotoxicity control for PAX8 inhibitor project, dose response (AID 743021); type: functional, cell-based
BJ [5] = experiment: BJ-TERT-LT-ST fibroblast viability loss – cell-based, RAS-independent, luminescence, dose response (AID 1935); type: functional; conditions: Homo sapiens;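 also: BJ fibroblasts immortalized with TERT plus LT and ST oncogenes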
BJ [6] = experiment: BJ-TERT fibroblast viability loss – cell-based, RAS-independent, luminescence, dose response (AID 1933); type: functional; conditions: Homo sapiens
Paired box protein Pax-8 = Paired box protein Pax-8 (Homo sapiens, UniProt Q06710); experiment: PAX8 transcriptional activity inhibition in RMG-I – RMG-I cells, luciferase, cherry-pick, dose response (AID 687027); type: functional, cell-based;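 also: luciferase reporter driven by Pax8 target thyroperoxidase promoter measured by SteadyGlo luminescence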
[7] = molecular target: Beta-2 adrenergic receptor (Homo sapiens, UniProt P07550); experiment: ADRB2 activation measured by internalization – cell-based, FAP fluorogen, flow cytometry, cherry pick 1, dose response (AID 588763); type: functional
[8] = HEK-293T viability loss after treatment – luminescence, T-cell screen hits, cytotoxicity control for TCR NF-kB inhibitor project, dose response (AID 489026); type: functional, cell-based;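 also: cells exposed to compound about 14 hours before the viability readout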
[9] = molecular target: T2, High affinity choline transporter 1 (Homo sapiens, UniProt Q9GZV3); experiment: human choline transporter blockers, potency – cell-based, 5-point CRC, membrane potential dye, dose response (AID 504840); type: functional
T2 sequence (Q9GZV3 whole entry): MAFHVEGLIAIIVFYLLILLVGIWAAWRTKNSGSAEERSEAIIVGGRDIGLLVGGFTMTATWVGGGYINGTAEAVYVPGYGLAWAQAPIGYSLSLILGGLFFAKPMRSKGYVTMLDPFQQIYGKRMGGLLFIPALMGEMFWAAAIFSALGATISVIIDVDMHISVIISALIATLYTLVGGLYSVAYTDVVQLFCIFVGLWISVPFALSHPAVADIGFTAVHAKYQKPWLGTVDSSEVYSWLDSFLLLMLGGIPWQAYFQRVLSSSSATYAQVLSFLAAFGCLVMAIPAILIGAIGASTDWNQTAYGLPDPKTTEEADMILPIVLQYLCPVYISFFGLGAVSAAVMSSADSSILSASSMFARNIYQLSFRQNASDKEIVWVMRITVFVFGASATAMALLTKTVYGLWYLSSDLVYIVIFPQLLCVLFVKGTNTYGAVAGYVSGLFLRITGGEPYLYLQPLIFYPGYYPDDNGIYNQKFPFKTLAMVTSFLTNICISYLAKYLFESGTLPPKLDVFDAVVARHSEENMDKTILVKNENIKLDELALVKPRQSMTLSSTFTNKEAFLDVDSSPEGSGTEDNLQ

[10] = molecular target: T2, High affinity choline transporter 1; experiment: human choline transporter blockers, potency – cell-based, 10-point CRC, membrane potential dye, dose response (AID 588401); type: functional;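 also: membrane potential dye fluorescence of choline-evoked depolarization via CHT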
INS1 = experiment: INS-1E survival protection against cytokine death – cell-based, luminescence, retest, dose response (AID 449756); type: functional; conditions: Rattus norvegicus;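 also: cell death triggered by IL-1 beta plus TNF-alpha plus IFN-gamma mixture; protective hits raise ATP signal compared with cytokine alone wells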
[11] = luciferase reporter signal suppression in cells – H4 neuroglioma cells, luminescence, dose response (AID 1990); type: functional, cell-based
[12] = Luminescence Cell-Based Dose Retest to Confirm Inhibitors of Cancer Stem Cells. [Related pubchem assays (depositor defined):AID2717, AID2721]; type: functional; conditions: Homo sapiens
[13] = Luminescence Cell-Based Dose Response HTS to Identify Inhibitors of 5'UTR Stem-Loop Driven Prion Protein mRNA Translation in H4 Neuroglioblastoma Cells. [Related pubchem assays: 1827 (Project Summary), 1813 (Primary HTS)]; type: functional
[14] = alpha-synuclein stem-loop luciferase translation blockers – H4 neuroglioma cells, luminescence, confirmation (AID 1988); type: functional, cell-based
[15] = blockers of HIV-1 envelope-mediated cell-cell fusion – cherry-pick, dose response (AID 652057); type: functional, cell-based
[16] = off-target signal loss in HeLa-CEM21 co-culture – HeLa F-luc CTL cells, cherry-picked, counter-screen for HIV-1 Env fusion inhibitor project, dose response (AID 652040); type: functional, cell-based;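 also: potency for signal decrease marking cytotoxic or nonspecific inhibition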
[17] = blockers of HIV-1 ZM109 envelope-driven cell-cell fusion – HeLa effector, CEM target cells, luciferase, cherry-pick, dose response (AID 652058); type: functional, cell-based;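 also: luciferase signal from HIV-1 Env mediated cell-cell fusion of effector and target cells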
[18] = P. falciparum Dd2 growth inhibitors, dose response, SYBR Green, cherry-picked samples (AID 1159567); type: functional, cell-based
[19] = toxicity to human hepatoma HepG2 cells – cell-based, cherry-picked samples, cytotoxicity control, dose response (AID 1159577); type: functional
[20] = molecular target: T3, Heat shock factor protein 1 (Mus musculus, UniProt P38532); experiment: decrease of HSF1-responsive luciferase luminescence – cell-based, NIH3T3, dose retest, confirmation (AID 2382); type: functional;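 also: NIH3T3 fibroblasts with HSF1-driven luciferase reporter stressed by proteasome inhibitor MG132; luminescence from HSF1-driven luciferase expression after 8 hours of MG132 stress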
T3 sequence (P38532 whole entry): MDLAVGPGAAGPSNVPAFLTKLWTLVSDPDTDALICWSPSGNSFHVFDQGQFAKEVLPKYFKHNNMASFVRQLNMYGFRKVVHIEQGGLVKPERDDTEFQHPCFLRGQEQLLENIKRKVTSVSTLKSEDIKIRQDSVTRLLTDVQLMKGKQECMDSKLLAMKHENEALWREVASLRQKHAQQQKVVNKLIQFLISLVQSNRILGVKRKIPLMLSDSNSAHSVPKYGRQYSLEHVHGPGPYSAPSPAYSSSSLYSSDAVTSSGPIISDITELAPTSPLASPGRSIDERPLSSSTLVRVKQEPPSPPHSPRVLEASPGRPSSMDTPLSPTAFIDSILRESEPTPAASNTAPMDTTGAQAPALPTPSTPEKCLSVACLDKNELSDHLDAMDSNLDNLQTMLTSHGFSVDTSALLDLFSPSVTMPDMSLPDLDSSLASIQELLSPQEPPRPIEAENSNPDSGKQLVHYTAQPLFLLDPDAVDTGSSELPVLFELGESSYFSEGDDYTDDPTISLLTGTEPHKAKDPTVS

[21] = HIV-1 AD8 envelope cell-cell fusion blockers – cherry-pick, dose response (AID 652062); type: functional, cell-based;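 also: luciferase signal from cell-cell fusion driven by HIV-1 clade B AD8 Env; potency is for inhibitors of fusion seen as a drop in luminescence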
[22] = viability of uninfected HEp-2 cells – cell-based, HTS, cytotoxicity control for RSV inhibitor project, dose response (AID 2410); type: functional; conditions: human respiratory syncytial virus

Beta-2 adrenergic receptor, sequence (P07550 whole entry): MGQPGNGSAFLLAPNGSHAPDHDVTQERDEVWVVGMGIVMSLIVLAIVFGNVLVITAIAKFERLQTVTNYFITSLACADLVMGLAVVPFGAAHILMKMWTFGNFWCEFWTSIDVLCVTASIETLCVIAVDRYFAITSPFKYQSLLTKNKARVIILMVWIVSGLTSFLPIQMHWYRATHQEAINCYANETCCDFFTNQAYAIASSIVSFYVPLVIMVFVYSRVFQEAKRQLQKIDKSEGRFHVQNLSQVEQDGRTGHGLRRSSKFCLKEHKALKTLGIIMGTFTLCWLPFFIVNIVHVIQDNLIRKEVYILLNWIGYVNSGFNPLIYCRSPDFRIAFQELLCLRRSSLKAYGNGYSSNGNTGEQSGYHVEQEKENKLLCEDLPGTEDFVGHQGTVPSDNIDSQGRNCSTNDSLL
Paired box protein Pax-8, sequence (Q06710 whole entry): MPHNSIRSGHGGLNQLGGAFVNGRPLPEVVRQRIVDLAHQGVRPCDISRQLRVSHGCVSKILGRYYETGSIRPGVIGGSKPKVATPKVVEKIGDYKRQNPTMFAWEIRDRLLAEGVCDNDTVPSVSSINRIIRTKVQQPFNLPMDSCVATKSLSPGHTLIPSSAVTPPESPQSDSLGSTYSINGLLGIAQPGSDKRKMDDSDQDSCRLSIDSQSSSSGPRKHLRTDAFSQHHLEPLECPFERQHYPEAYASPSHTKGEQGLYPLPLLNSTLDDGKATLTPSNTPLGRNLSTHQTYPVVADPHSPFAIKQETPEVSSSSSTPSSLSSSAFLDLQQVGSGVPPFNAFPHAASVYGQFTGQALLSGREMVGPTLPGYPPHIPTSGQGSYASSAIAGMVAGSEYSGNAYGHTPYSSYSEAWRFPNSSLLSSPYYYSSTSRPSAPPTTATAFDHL

**Q.** Which IC50 [1] does the source give for `COc1ccc(NC(=S)Nc2ccc3nccnc3c2)cc1` here?
**A.** > 50 µM (not active)

**Q.** With `COc1cccc(NC(=O)Nc2nc(-c3ccc(OC)c(OC)c3)cs2)c1` as the molecule, how does the EC50 (BJ [2]) read?
**A.** 8.03 µM (active)

**Q.** And the EC50 [3]?
**A.** 5.56 µM (active)

**Q.** What about the AC50 [4] of the same molecule?
**A.** 12.3 µM (active)

**Q.** What about the EC50 (BJ [5]) of the same molecule?
**A.** 9.04 µM (inconclusive)

**Q.** What about the EC50 (BJ [6]) of the same molecule?
**A.** 5.89 µM (active)

**Q.** What about the AC50 (Paired box protein Pax-8) of the same molecule?
**A.** 7.88 µM (active)

**Q.** With `COCCCNc1ncnc2c1sc1nc(-c3ccco3)c3c(c12)CC(C)(C)OC3` as the molecule, how does the EC50 [7] read?
**A.** 0.0417 µM (active)

**Q.** For `CCC(=O)c1ccc(OCC(=O)N2CCN(CC(=O)Nc3ccc(C)cc3)CC2)cc1`, which EC50 [7] is on record?
**A.** 0.0646 µM (active)

**Q.** For `Oc1cc(-c2ccccc2)nc2cc(F)ccc12`, which IC50 [8] is on record?
**A.** > 80 µM (inactive)

**Q.** Which IC50 [9] does the source give for `c1cn(C23CC4CC(CC(C4)C2)C3)cn1` here?
**A.** 7.43 µM (active)

**Q.** What about the IC50 [10] of the same molecule?
**A.** 3.57 µM (active)

**Q.** Which IC50 [8] does the source give for `COc1cc([C@@H]2c3cc4c(cc3[C@@H](OC)[C@H]3COC(=O)[C@H]23)OCO4)cc(OC)c1O` here?
**A.** > 80 µM (inactive)

**Q.** With `COc1ccc(/C=C/C(=O)c2ccc([N+](=O)[O-])o2)cc1OC` as the molecule, how does the AC50 (INS1) read?
**A.** 3.94 µM (active)

**Q.** What about the EC50 [11] of the same molecule?
**A.** 9.14 µM (active)

**Q.** And the EC50 (BJ [2])?
**A.** > 150 µM (inconclusive)

**Q.** What about the AC50 [12] of the same molecule?
**A.** 2.09 µM (active)

**Q.** And the EC50 [3]?
**A.** 2.58 µM (inconclusive)

**Q.** What about the EC50 [13] of the same molecule?
**A.** 10.5 µM (active)

**Q.** And the EC50 (BJ [5])?
**A.** 1.15 µM (inconclusive)

**Q.** And the EC50 (BJ [6])?
**A.** > 150 µM (not active)

**Q.** And the EC50 [14]?
**A.** > 120 µM (not active)

**Q.** For `COC(=O)C1(C(=O)OC)C[C@H](c2ccc(OC)cc2)N(Cc2ccccc2OC)[C@@H]1c1cccs1`, which AC50 [15] is on record?
**A.** 2.05 µM (active) and 2.55 µM (active)

**Q.** And the AC50 [16]?
**A.** 4.05 µM (active) and 2.64 µM (active)

**Q.** What about the AC50 [17] of the same molecule?
**A.** 4.03 µM (active) and 2.19 µM (active)

**Q.** What does the source list for `OC[C@@H]1[C@H](c2ccc(C3=CCCCC3)cc2)[C@@H](CNC2CCCC2)N1CC1CC1`?
**A.** AC50 [18]: 1.61 µM (active); AC50 [19]: 21.9 µM (active)

**Q.** Which results are given for `CCCCOc1cccc(C(=O)Nc2ccc(NC(=O)c3cccs3)cc2)c1`?
**A.** EC50 [7]: 0.256 µM (active); EC50 [20]: 9.51 µM (active)

**Q.** For `COC(=O)Cn1ccc(N(C)C)c(C#N)c1=O`, which IC50 [9] is on record?
**A.** 4.07 µM (active)

**Q.** What about the IC50 [10] of the same molecule?
**A.** 2.89 µM (active)

**Q.** Which AC50 [15] does the source give for `COC(=O)C1(C(=O)OC)C[C@H](c2ccccc2)N(Cc2ccccc2OC)[C@@H]1c1ccccc1` here?
**A.** 1.65 µM (active)

**Q.** What about the AC50 [16] of the same molecule?
**A.** 3.26 µM (active)

**Q.** And the AC50 [21]?
**A.** 2.41 µM (active)

**Q.** What about the AC50 [17] of the same molecule?
**A.** 1.75 µM (active)

**Q.** For `O=C(Nc1cccc(-c2nc3ccccc3s2)c1)c1cccs1`, which EC50 [7] is on record?
**A.** 16.9 µM (inactive)

**Q.** What about the CC50 [22] of the same molecule?
**A.** 15.4 µM (active)
